Measurements: PubChem BioAssay AID179 (DTP/NCI, 2004)
Activity calls are given as the source filed them.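 Rule for the calls: active = compounds giving half or more protection of infected cells from virus-caused growth loss, again on retest; inactive = the rest.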 Where a SMILES comes first, the peptide text is derived from it. The star is where a group is joined. Boc = CC(C)(C)OC(=O)*; OBn = c1ccc(CO*)cc1

System: CEM cells HIV-1 protection, formazan growth assay
Assay: NCI AIDS Antiviral Assay
Conditions: for IC50: measured here: growth of uninfected CEM cells
How it was run: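 Soluble formazan readout of cell growth; CEM cells ± HIV-1; 5 drug concs. ≥50% protection → retest; ≥50% again = moderately active; reproducible 100% = confirmed active.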

SMILES | EC50 | IC50 | outcome
CC1CC(=O)Nc2cc(C(F)(F)F)ccc2N1 (stereo not given) | > 200 µM | > 200 µM | 
CCN1/C(=C/C#C/C(C)=C\c2sc3ccc(Cl)cc3[n+]2CC)Sc2ccc(Cl)cc21 | > 20 µM | 2.24 µM | 
COc1ccc(C23C(=O)c4ccccc4N2O[C@H]2C(=O)N(c4ccccc4)C(=O)[C@H]23)cc1 (stereo not given in full) | > 31.6 µM | > 31.6 µM | 
C#CC(C)(C)Oc1cc(OC)c2c(=O)c3ccccc3n(C)c2c1 | > 200 µM | 11 µM | 
CC1CC/C(=C\c2ccc(N(C)C)cc2)C(=O)/C1=C/c1ccc(N(C)C)cc1 (stereo not given) | > 100 µM | 60.3 µM | 
CCOC(=O)Nc1cc(NC(C)/C(=N/O)c2ccccc2)c([N+](=O)[O-])c(N)n1 (stereo not given) |  |  | inactive
Nc1nc(NC2C3CC4CC(C3)CC2C4)nc(-c2n[nH]c(=S)o2)n1 (stereo not given) | > 55 µM | 28.2 µM | 
C=C1CN(S(=O)(=O)c2ccc(C)cc2)CCCN(C(=O)OC(C)C)CCCN(S(=O)(=O)c2ccc(C)cc2)C1 | > 200 µM | 14.1 µM | 
Cc1nc2c(nc1C)C(=O)C=CC2=O | > 200 µM | 11.5 µM | 
CC(=O)Oc1ccc2c(c1)c1c(=O)oc(C)nc1n2Cc1ccccc1 | > 200 µM | 66.1 µM | 
COc1ccc(N2C(=O)C3c4[nH]c5ccc([N+](=O)[O-])cc5c4C4CCC(C(C)(C)C)CC4C3C2=O)cc1 (stereo not given) | > 200 µM | 18.2 µM | 
COC(=O)[C@](C)(Cc1ccccc1)NC(=O)[C@@H](C)N1[C@@H](c2ccccc2)COC1(C)C | > 200 µM | > 200 µM | 
CC(C)(C)n1[nH]c(=O)n(C(C)(C)C)c1=O | > 200 µM | > 200 µM | 
CC(=O)OCC1CCC(=C2C(=O)OC(C)(C)OC2=O)N1 (stereo not given) | > 200 µM | > 200 µM | 
CC(C)CCCC(C)[C@H]1CC[C@H]2[C@H]3CC[C@@H]4C[C@H](CCC=C(c5cc(Cl)c(O)c(C(=O)O)c5)c5cc(Cl)c(O)c(C(=O)O)c5)CC[C@]4(C)[C@H]3CC[C@]12C (stereo not given in full) | 41.7 µM | > 200 µM | 
Cc1cc(Cl)c2c(c1)C(=O)/C(=C/c1ccc(Cl)cc1)O2 | > 200 µM | 15.8 µM | 
NNC(=O)CCc1c[nH]c2ccccc12 | > 1230 µM | 661 µM | 
CN1C(=O)N/C(=C\c2ccc(S(=O)(=O)N/N=C/c3ccccc3)cc2)C1=O | > 200 µM | 5.25 µM | 
C[C@H](NC(=O)c1ccccc1SC(=O)NCCCCl)C(N)=O | 3.63 µM | 44.7 µM | 
CN1CCN=C(c2ccccc2)c2cc(Cl)ccc21 | > 200 µM | 105 µM | 
O=c1c2cc3c(=O)n(CCc4ccccc4CO)c(=O)c3cc2c(=O)n1CCc1ccccc1CO | > 10.7 µM | > 10.7 µM | 

SMILES | EC50 | IC50 | outcome
COc1cc(C(C)O)c[n+](CCc2c[nH]c3ccccc23)c1 (stereo not given) | > 234 µM | > 234 µM | 
CC(C)(C)c1cc(C(=O)[O-])c([OH2+])c(C(C)(C)C)c1.CC(C)(C)c1cc(C(=O)[O-])c([OH2+])c(C(C)(C)C)c1.[Mn+2] | > 85.1 µM | 33.9 µM | 
COc1ccccc1/C(=N\OCCC(=O)O)c1cccs1 |  |  | inactive
O=[N+]([O-])c1ccc(-c2nc(N(CCO)CCO)c3ccccc3n2)o1 | > 200 µM | 0.331 µM | 
C1=NCCNc2nc3ccccc3cc2C=NCCNc2nc3ccccc3cc21 | > 200 µM | > 200 µM | 
Cc1ncc(COP(=O)(O)O)c(/C=C2\SC(=S)NC2=O)c1O | > 200 µM | > 200 µM | 
CCOC(=O)C(=O)C(CCC(=O)c1ccc2ccccc2c1O)C(=O)OCC (stereo not given) | > 468 µM | 389 µM | 
Cn1c(=O)c(S(C)=O)c(O)c2ccccc21 (stereo not given) | > 200 µM | > 200 µM | 
O=C1C=C(Nc2cccnc2)c2ccccc2C1=O | > 20.9 µM | 18.2 µM | 
O=C(Nc1cccc([N+](=O)[O-])c1)OCc1ccc2c(c1)OCO2 |  |  | inactive
CC1(c2nc3cc(Cl)c(Cl)cc3[nH]2)CCC(CO)C(C)(C)O1 (stereo not given) |  |  | inactive
O=C1C2(CCCC13OC3c1ccccc1)OC2c1ccccc1 (stereo not given) | > 200 µM | 115 µM | 
C=C(CCC(Cl)C(O)CO)[Si](C)(C)C (stereo not given) | > 110 µM | > 110 µM | 
CCOC(=O)C(C(=S)Nc1ccccc1)c1nn2c(=O)cc(C)nc2s1 (stereo not given) | > 200 µM | 34.7 µM | 
O=C(CCSSCCC(=O)ON1C(=O)CCC1=O)ON1C(=O)CCC1=O | > 200 µM | > 200 µM | 
CN(C)CN1C(=O)S/C(=C2\C(=O)N(C)c3ccc(Br)cc32)C1=O | > 200 µM | 24 µM | 
O=C(/C=C/c1ccccc1F)c1ccccc1 | > 22.9 µM | > 22.9 µM | 
CCCCCCCNC(C)(C)C(SSSC(c1ccc(Cl)cc1)C(C)(C)NCCCCCCC)c1ccc(Cl)cc1 (stereo not given) | > 100 µM | > 100 µM | 
Clc1ccccc1C[P+](c1ccccc1)(c1ccccc1)c1ccccc1 | > 200 µM | 4.57 µM | 
CCC(=O)COc1ccc(NC(NC(=O)C(C(F)(F)F)C(F)(F)F)(C(F)(F)F)C(F)(F)F)cc1 |  |  | inactive
CC(NC(=O)C(Cc1ccccc1)NC(=O)C(Cc1ccccc1)NC(=O)OC(C)(C)C)C(=O)OCc1ccccc1 (stereo not drawn) (Boc-Phe-Phe-Ala-OBn; configuration not given here) | > 200 µM | 60.3 µM | 

SMILES | EC50 | IC50 | outcome
CC(=O)OCCCCCn1cnc(C(N)=O)c1N | > 200 µM | > 200 µM | 
Cn1nc(-c2ccc(Cl)c(Cl)c2)[n+]([O-])c2c(=O)n(C)c(=O)nc1-2 | > 200 µM | 1.38 µM | 
Clc1c2ccccc2[se][n+]1Cc1ccccc1 | > 15.1 µM | 12.3 µM | 
CCN(C(=O)N[C@@H](Cc1ccccc1)C(=O)N[C@@H](CC(C)C)C(=O)NC)c1ccccc1 | > 200 µM | 195 µM | 
S=C1SC2(CCCCCC2)NC2=C1CCCCC2 | > 25.7 µM | 15.8 µM | 
CSc1ncnc2c1ncn2CCC(=O)OC(C)(C)C | > 200 µM | > 200 µM | 
O=c1cc(-c2ccccc2)oc2cccc(O)c12 | > 200 µM | > 200 µM | 
CCOc1ccc(N=Cc2ccc3ccccc3n2)cc1 |  |  | inactive
COc1ccccc1N1C(=O)CSC1=Nc1ccccc1 | > 112 µM | > 112 µM | 
N#Cc1ccc(OCc2nc3cc(C(F)(F)F)ccc3nc2-c2ccccc2)cc1 | > 200 µM | 30.2 µM | 
CC1(C)C(=O)NC(=O)c2ccccc21 | > 200 µM | > 200 µM | 
O=[N+]([O-])C(=C(Cl)Cl)/C(Cl)=C(\Cl)Br |  |  | inactive
Cc1cn(C2C=CC(COP(=O)(OCC(=O)c3ccccc3)OCC(=O)c3ccccc3)O2)c(=O)[nH]c1=O (stereo not given) | 0.851 µM | 110 µM | 
CC(NC(=O)OCc1ccccc1)NC(=O)OC(C)(C)C (stereo not given) | > 200 µM | 102 µM | 
C=C1CN(S(=O)(=O)c2ccc(C)cc2)CCCN(Cc2cccn2C)CCCN(S(=O)(=O)c2ccc(C)cc2)C1 | > 200 µM | 38.9 µM | 
OC1C(O)C2(C[C@H]1Br)OC(COCc1ccccc1)[C@@H](COCc1ccccc1)O2 (stereo not given in full) |  |  | inactive
CCc1c(O)c2c(c(O)c1C(C)=O)C(=O)c1c(cc(O)c(C(=O)O)c1C(=O)O)C2=O | > 33.1 µM | > 33.1 µM | 
Cc1occc1C(=S)Nc1ccc(Cl)c(C(=O)OC(C)(C)C)c1 | 0.0339 µM | 9.33 µM | 
Brc1c(C(Br)Br)ccc2ccccc12 | > 200 µM | 23.4 µM | 
Cn1c2ccccc2c(=NNc2ccccc2C(=O)O)c2ccccc21 | > 200 µM | 19.5 µM | 
O=C(Nc1ccc(/C=C/c2ccc(NC(=O)c3ccccc3O)cc2S(=O)(=O)O)c(S(=O)(=O)O)c1)c1ccccc1O | 115 µM | > 200 µM | 

SMILES | EC50 | IC50 | outcome
O=C1C2=C(c3ccccc31)C(c1ccccc1Cl)N1C(=O)CSC1=N2 (stereo not given) | > 37.2 µM | > 37.2 µM | 
CN1CC(=O)Nc2c(ncn2C2OC(CO)C(O)C2O)C1=O (stereo not given) | > 229 µM | > 229 µM | 
C/C(=N\NC(=S)N1CCC(C2CCN(C(=S)N/N=C(\C)c3ccccn3)CC2)CC1)c1ccccn1 | > 3.8 µM | 1.91 µM | 
O=C(Nc1nccs1)c1ccc(C(=O)Nc2nccs2)cc1 | > 200 µM | > 200 µM | 
COC(=O)C1[C@H](C(=O)OC)C1(Br)CBr (stereo not given in full) | > 200 µM | 97.7 µM | 
CC1(C)C/C(=N/O)c2c(nc3ccc4ccccc4c3c2-c2ccc(Cl)cc2)C1 | > 100 µM | 37.2 µM | 
CC(C)(C)[Si](C)(C)OCC1OC(n2ccc(=O)[nH]c2=O)C(O[Si](C)(C)C(C)(C)C)C1C/C=[N+](/[O-])CC1OC(n2ccc(=O)[nH]c2=O)C(O[Si](C)(C)C(C)(C)C)C1O[Si](C)(C)C(C)(C)C (stereo not given) | > 100 µM | > 100 µM | 
Cc1nc2ccc(C(F)(F)F)cc2nc1Nc1ccc(Cl)c(Cl)c1 | > 17.8 µM | 11.5 µM | 
COC(=O)c1cc(C#N)[nH]c1-c1ccsc1 | > 200 µM | 30.9 µM | 
COc1cc(C)c2c(=O)c3ccccc3n(C)c2c1 | 2.82 µM | 30.2 µM | 
O=[N+]([O-])c1c(C=Nc2ccccc2)oc(-c2ccc3c(c2)OCO3)c1-c1ccc2c(c1)OCO2 | > 49 µM | > 49 µM | 
C=CCN=C1N=C(CC(=O)OCC)CS1 |  |  | inactive
Nc1ccccc1/C(O)=C1/CCOC1=O | > 7.08 µM | > 7.08 µM | 
CCOC(=O)c1[nH]c2nc(SC)nc(NC)c2c1N | > 200 µM | 129 µM | 
CC(C)[Si](OC1=CCC[C@H]2NC(=O)[C@@H](Cc3ccc([N+](=O)[O-])cc3)[C@@]12C)(C(C)C)C(C)C | > 200 µM | 20.4 µM | 
NC(=O)NNC/C(Cl)=C(\Cl)C(=O)O | > 1100 µM | 191 µM | 
ONC1=Nc2ccccc2OCc2cc(Br)c(Br)cc2COc2ccccc2N=C1NO | > 200 µM | 10 µM | 
CCCCCCCCN(/N=C/c1c2c(O)c3c(O)c(C)c4c(c3c1O)C(=O)C(C)(O/C=C/C(OC)C(C)C(OC(C)=O)C(C)C(O)C(C)C(O)C(C)/C=C/C=C(C)C(=O)N2)O4)C1OC(COC(=O)c2ccccc2)C(OC(=O)c2ccccc2)C1OC(=O)c1ccccc1 (stereo not given) | > 200 µM | 10.5 µM | 
C=C1C(=O)O[C@H]2[C@H]1CC(=O)/C(C)=C/CC[C@@]1(C)O[C@@H]21 | > 2 µM | 0.794 µM | 
